Source: patent publication EP2963052A2, “PEPTIDES WITH CYTOPROTECTIVE ACTIVITY” (Zamerton Holdings Limited, priority 2013, dated 2016)
Residues, ends and D or L forms follow the SMILES beside them.

Legend:
HeLa S3 cells = experiment: Protective effect of peptides on apoptosis and necrosis in the presence of camptothecin (Annexin-V FITC / PI flow cytofluorimetry); format: cell-based, human; conditions: HeLa cell culture, 24 hours
Description: (§1) The experiments to study the effect of peptides on apoptosis and necrosis involved the use of reagents in the ApoTarget Annexin-V FITC Apoptosis Kit (Invitrogen, CIIIA). In addition to Annexin-V, marked by the FITC fluorescent stain, the ApoTarget Annexin-V FITC Apoptosis Kit contains propidium iodide (PI), a dye. PI can permeate only those cells whose cytoplasmic membrane is damaged, which is a characteristic sign of an advanced stage of apoptosis or necrosis. Having permeated cells with damaged cell membrane, PI binds itself to the DNA. The «red» fluorescence of resulting complexes is identified with a flow cytofluorimeter.
(§2) Therefore, the procedure of double staining (Annexin-V FITC plus PI) and the process of flow cytofluorimetry can be used to distinguish 3 cell populations and determine their percentage relationship: 1) non-apoptotic cells (Annexin-V-negative and PI-negative), 2) cells at an early stage of apoptosis (Annexin-V-positive and PI-negative), 3) necrotic cells or cells at an advanced stage of apoptosis (Annexin-V- positive and PI- positive). An increase in the percentage of apoptotic and necrotic cells can serve as a measure of how the compounds added to the culture medium act on these processes. Camptothecin (Camptothecin, Sigma, CIIIA), which is recommended by the manufacturer, was used as control in the experiments because of its pronounced ability to induce apoptosis and necrosis of cells, especially tumor ones.
(§3) Peptide solutions in sterile PBS with concentrations of 1 mg/ml were prepared immediately before the experiments to study the peptides' effect on apoptosis and necrosis. The same solutions that were stored in sterile test tubes at +4°C were used to study the proliferation activity. Working dilutions of peptides in the cell cultivation medium were prepared on the day of each experiment. A sterile plastic 96-well plate (Corning, USA) was used for this purpose. The dilutions were prepared so that the introduction of 25 µl of each working dilution in an experimental well with cultivated cells would result in final concentrations of peptides equal to 400, 200, 100 and 50 ng/ml.
(§4) The HeLa S3 and NIH 3T3 cells were cultivated with the use of reagents manufactured by Invitrogen (USA) and plastic vials, plates, pipettes and filters of Corning (USA). The cells were cultivated in DMEM, prepared with a dry concentrate dissolved in pyrogen-free distilled water (Millipore, USA). The medium contained 10 % FBS, 2 mM of glutamine and penicillin-streptomycin (diluted according to the vendor's recommendations). HeLa S3 and NIH 3T3 were grown in vials T150 at +37 °C in the atmosphere of 5.6 % CO2. The cells were constantly maintained in the logarithmic growth phase, to this end they were passed at least 2 times a week, with trypsin used to remove cells from the walls of the culture vials. Live cells were counted in a hemacytometer after staining the suspension aliquot with trypan blue.
(§5) The HeLa S3 and NIH 3T3 cells were removed from the surface of the culture vials and counted; the concentration was moved to 10^5 cell/ml, and the resulting suspensions were put in doses of 1 ml in the wells of a 24-well plate.
(§6) Having made sure on the following day that the cells adhered to the plate's surface, the culture medium was replaced with a fresh one in each well.
(§7) Camptothecin was added in the control wells (positive control - stimulation of apoptosis and necrosis) to the final concentration of 50 µM that had been determined in preliminary experiments with the NIH 3T3 and HeLa S3 cells. 25 µl of fresh culture medium were added in the control wells (negative control), 25 µl of working peptide dilutions were added in each experimental well (each working dilution - twice), as well as camptothecin in the same final concentration. Incubation was conducted at +37 °C. […]

NIH 3T3 cells = experiment: as above; format: cell-based, mice; conditions: NIH3T3 cell culture, 24 hours
Description: as §1, §2, §3, §4, §5, §6, §7

[1] = Stability of peptides in storage in solution (HPLC analysis); conditions: 0.05 M ammonium acetate buffer, approx. 1 mg/ml
Description: The peptides were dissolved in 0.05 M of an ammonium acetate buffer with pH 4.5 and pH 7.5 so that their concentrations achieved approximately 1 mg/ml. The solutions were sterilely filtered and kept in sterile, well-sealed vials. Upon expiration of the storage period the substances were analyzed with HPLC.

[2] = peptide 50 ng/ml + camptothecin 50 µM
[3] = peptide 100 ng/ml + camptothecin 50 µM
[4] = peptide 200 ng/ml + camptothecin 50 µM
[5] = peptide 400 ng/ml + camptothecin 50 µM

Row | SMILES | Apoptosis (HeLa S3 cells; [2]) [%] | Necrosis (HeLa S3 cells; [2]) [%] | Apoptosis (HeLa S3 cells; [3]) [%] | Necrosis (HeLa S3 cells; [3]) [%] | Apoptosis (HeLa S3 cells; [4]) [%] | Necrosis (HeLa S3 cells; [4]) [%] | Apoptosis (HeLa S3 cells; [5]) [%] | Necrosis (HeLa S3 cells; [5]) [%] | Apoptosis (NIH 3T3 cells; [2]) [%] | Necrosis (NIH 3T3 cells; [2]) [%] | Apoptosis (NIH 3T3 cells; [3]) [%] | Necrosis (NIH 3T3 cells; [3]) [%] | Apoptosis (NIH 3T3 cells; [4]) [%] | Necrosis (NIH 3T3 cells; [4]) [%] | Apoptosis (NIH 3T3 cells; [5]) [%] | Necrosis (NIH 3T3 cells; [5]) [%] | Peptide stability in storage ([1]; 1hour, pH 4.5, 22°C) | Peptide stability in storage ([1]; 1hour, pH 7.5, 22°C) | Peptide stability in storage ([1]; 10 days, pH 4.5, 22°C) | Peptide stability in storage ([1]; 10 days, pH 7.5, 22°C) | also measured
1 | C[C@H](N)C(=O)N[C@@H](CC(=O)O)C(=O)N[C@@H](CCC(=O)O)C(=O)N[C@@H](CCCNC(=N)N)C(=O)O [ADER, H-Ala-Asp-Glu-Arg-OH] (H-ADER-OH) | 2 | 5.2 | 2.1 | 4.1 | 1.5 | 4 | 2.3 | 4 | 3 | 4 | 2.2 | 3.1 | 2.5 | 3.5 | 4.1 | 5 | 98.1 | 98.1 | 98.0 | 98.0 | Peptide stability in storage ([1]; 30 days, pH 4.5, 22°C): 97.9; Peptide stability in storage ([1]; 30 days, pH 7.5, 22°C): 97.7; Peptide stability in storage ([1]; 60 days, pH 4.5, 22°C): 98.0; Peptide stability in storage ([1]; 60 days, pH 7.5, 22°C): 97.7; Peptide stability in storage ([1]; 90 days, pH 4.5, 22°C): 97.8; Peptide stability in storage ([1]; 90 days, pH 7.5, 22°C): 97.6
2 | CC(=O)N[C@@H](CC(=O)O)C(=O)N[C@@H](CCC(=O)O)C(=O)O [AcDE, Ac-Asp-Glu-OH] (Ac-Asp-Glu-OH) | 21 | 13 | 17 | 11 | 15 | 8 | 22 | 7 | 35 | 50 | 30 | 46 | 22 | 34 | 19 | 28 | – | – | – | – | –
3 | CCNC(=O)[C@H](CCC(=O)O)NC(=O)[C@@H](N)CC(=O)O [DENHEt, H-Asp-Glu-NH-CH2-CH3] (HELM PEPTIDE1{D.E.[CCN[*:1]]}$$$$V2.0) | 15 | 20 | 9 | 18 | 8 | 13 | 8 | 16 | 25 | 13 | 23 | 12 | 21 | 11 | 18 | 7 | 98.1 | 98.2 | 98.3 | 98.2 | Peptide stability in storage ([1]; 30 days, pH 4.5, 22°C): 98.15; Peptide stability in storage ([1]; 30 days, pH 7.5, 22°C): 98.10; Peptide stability in storage ([1]; 60 days, pH 4.5, 22°C): 98.0; Peptide stability in storage ([1]; 60 days, pH 7.5, 22°C): 98.0; Peptide stability in storage ([1]; 90 days, pH 4.5, 22°C): 97.9; Peptide stability in storage ([1]; 90 days, pH 7.5, 22°C): 97.85
